Source: US7754738B2, “Pyrazole and pyrrole carboxamide insecticides” (E.I. du Pont de Nemours and Company, priority 2002, dated 2010)

System: beet armyworm (Spodoptera exigua)
Assay: Test D: control of beet armyworm on corn plant, foliar spray
Type: in vivo
Conditions: sprayed at 50 ppm, 1-day-old larvae, 6 days, visual rating
Procedure: Test compounds were formulated using a solution containing 10% acetone, 90% water and 300 ppm X-77® Spreader Lo-Foam Formula non-ionic surfactant containing alkylarylpolyoxyethylene, free fatty acids, glycols and isopropanol (Loveland Industries, Inc., Greely, Colo. USA), unless otherwise indicated. The formulated compounds were applied in 1 mL of liquid through a SUJ2 atomizer nozzle with ⅛ JJ custom body (Spraying Systems Co. Wheaton, Ill., USA) positioned 1.27 cm (0.5 inches) above the top of each test unit. All experimental compounds in these tests were sprayed at 250 ppm (or lower) and replicated three times. After spraying of the formulated test compound, each test unit was allowed to dry for 1 hour and then a black, screened cap was placed on top. The test units were held for 6 days in a growth chamber at 25° C. and 70% relative humidity. Plant feeding damage was then visually assessed based on foliage consumed.
For evaluating control of beet armyworm (Spodoptera exigua) the test unit consisted of a small open container with a 4-5-day-old corn plant inside. This was pre-infested (using a core sampler) with 10-15 1-day-old larvae on a piece of insect diet.
Test compounds were formulated and sprayed at 250 ppm (or lower) as described for Test A. The applications were replicated three times. […]

## O=C(Nc1c(F)cc(F)cc1Br)c1cc(Br)nn1-c1ncccc1Cl [Compound 7, N-(2-bromo-4,6-difluorophenyl)-1-(3-chloro-2-pyridinyl)-3-bromo-1H-pyrazole-5-carboxamide]
  feeding damage (plant protection): ≤ 20%
